Data published in publication PMC8588420 (Molecules, 2021).

Columns and labels:
[1] = RP-TLC chromatographic lipophilicity parameter (RMW); type: physicochemical; details: RP2, RP18, RP18W plates; methanol-water, propan-1-ol-water, acetonitrile-water
Protocol: (§1) The lipophilicity study was performed on chromatographic plates for RP-TLC and NP-TLC analysis purchased from Merck (Darmstadt, Germany): silica gel RP18F254 (aluminum plates, No. 1.05559), silica gel RP2F254 (glass plates, No. 1.05747), and RP18WF254 (glass plates, No. 1.13142) were applied as stationary phases in the reversed-phase system. In the case of the NP-TLC system, aluminum chromatographic plates precoated with silica gel 60F254 without (No. 1.05554) and with a concentrating zone (No. 1.05583), glass plates precoated with silica gel 60CNF254 (No. 1.16464), and aluminum plates coated with the mixture of silica gel 60 and Kieselguhr F254 were tested (No. 1.05567).
The lipophilicity studies of the tested compounds were carried out on chromatographic plates 10 cm × 10 cm developed using mobile phases (50 mL) prepared by mixing the respective amounts of the organic modifier (methanol/acetonitrile/propan-1-ol/acetone) and water. In the case of NP-TLC analysis, the addition of 2.4% glacial acetic acid in the mobile phase methanol-water was used. […] The average value of RF (retardation factor) was determined in every case.
(§2) In this study, the chromatographic lipophilicity parameters of both studied compounds were calculated based on the retardation factor (RF) obtained for metformin and phenformin in each mobile phase and chromatographic plates used as the stationary phase. […]

[2] = NP-TLC chromatographic lipophilicity parameter (RMW); type: physicochemical; details: for RMW range over NP-TLC plates: four chromatographic plates; for RMW: NP-TLC
Protocol: as §1
The lipophilicity studies of the tested compounds were carried out on chromatographic plates 10 cm × 10 cm developed using mobile phases (50 mL) prepared by mixing the respective amounts of the organic modifier (methanol/acetonitrile/propan-1-ol/acetone) and water. In the case of NP-TLC analysis, the addition of 2.4% glacial acetic acid in the mobile phase methanol-water was used. The organic modifier concentrations (volume fraction, v/v) varied in a range from 0.40 to 0.90 in constant steps of 0.10. […] Chromatography was performed in a classical developing chamber, which was previously saturated with mobile phase vapors for 20 min. The migration distance was 7.0 cm. After the development, the plates were dried at room temperature (20 ± 1 °C) and visualized in UV light (λ = 254 nm) as the maximum wavelength for both biguanides. All analyses were repeated in triplicate. The average value of RF (retardation factor) was determined in every case.
as §2
Then, a linear correlation between the RM of the tested compounds and the volume ratio of the organic solvent in the mobile phase was performed for every chromatographic plate. The extrapolation of calculated RM values to the zero concentration of the organic modifier (i.e., to pure water) in accordance with Soczewiński-Wachtmeister’s Equation (2) allowed determining a valuable chromatographic parameter of lipophilicity expressed as RMW [1]. RM = RMW − S⋅φ(2) where RMW is the chromatographic parameter obtained using Soczewiński–Wachtmeister’s Equation (2), S is the regression slope, and φ is the volume fraction of the organic modifier (e.g., methanol, propan-1-ol, acetonitrile, acetone) in the mobile phase composition. Statistica v. 13.3 software (StatSoft, Kraków, Poland) was used to determine the parameters of these linear relationships.

[3] = n-octanol-water, literature value ref 46; cited from earlier work

Row | RMW range over RP-TLC systems [1] | RMW range over NP-TLC plates ([2]; acetone-water) | RMW range over NP-TLC plates ([2]; methanol-water-acetic acid) | RMW ([2]; Silica gel 60F254, acetone-water) | RMW ([2]; Silica gel 60F254 with concentrating zone, methanol-water-acetic acid) | Compound | logPow [3]
1 | −4.877 to 0.960 | −4.127 to 1.242 | −6.657 to 0.833 |  |  | CN(C)C(=N)N=C(N)N [Metformin, dimethylbiguanide] | 
2 | 0.142 to 0.728 | −4.383–0.790 | −1.983–6.170 | -4.383 | -1.983 | [H]/N=C(/N)N/C(=N/[H])NCCc1ccccc1 [Phenformin] | −0.83
